The subject of data set [1] is NIH 3T3. Nature of the data set: Plasmid DNA (CRISPR-Cas9-GFP) transfection, GFP expression by FACS. Format: cell-based. How it is done: (§1) Cell lines, transfection reagents and plasmids: The cells were maintained in DMEM medium with 10% (v/v) FCS and 1% (v/v) P/S in a humidified atmosphere in 5% CO2 and 37° C. The plasmid CRISPR-Cas9-GFP was purchased from DNA2.0. Lipofectamine 2000 (L2000) was obtained from […]. L2000 was used as positive control transfection agents, in accordance with the manufacturer's instructions.
(§2) Transfection procedure: 24 hours before transfection, cells were seeded in 96 well plates in order to reach 70-90% confluence. Peptide dendrimers/DNA complexes were formed by mixing the dendrimers (6.25 μL, from 5 μg to 6.4 μg on N/P ratio 5) with plasmid DNA (250 ng; 6.25 μL). These mixtures were incubated in OptiMEM for 30 min at 25° C. Transfection control complexes, L2000, was mixed with plasmid DNA (250 ng; 6.25 μL) at the respective manufacturers' recommended concentrations. Before overlaying the DNA complexes on the cells, OptiMEM was added to dilute the complexes, so that each complex contained 250 ng DNA in a total volume of 100 μL in one well of a 96 well plate. After removing complete media from the cells, the complexes were added to the plates. The plates were incubated for 4 hours at 37° C. Then, the transfection solutions were replaced by full growth media for 40 hours before transfection efficiency was assayed.
(§3) Transgene expression assay: The cells were washed twice with PBS and incubated with trypsin for 20 min at 37° C. Then 100 μL of PBS were added to each well and the transfection efficiency was assessed by FACS analysis (BD LSRFortessa).
(§4) For example, a study for transfecting plasmid DNA using similar peptide dendrimers and a large plasmid DNA coding for CRISPR-Cas9-GFP (−9 Kbp). The Cas9-2A-GFP vector allows the co-expression of Cas9 and GFP from the same mRNA. The self-cleavable peptide 2A allows the release of GFP reporter in the cytoplasm after the expression, so that the transfection efficiency was determined by tracking the expression of GFP (green fluorescent protein) in various cell lines upon exposure to the corresponding plasmid complexes with dendrimers at N/P=5. We tracked transfection efficiency by fluorescence activated cell sorting, and counted the percentage of successfully transfected cells, which appeared fluorescent. […] Most remarkably, dendrimer mediated transfection is found to be far more efficient than with the reference reagent L2000. […] However, cysteine containing monomers also transfected in the presence of reducing agents preventing dimer formation, showing that disulfide bridge formation is not required for DNA transfection.
On the technique in general: A flow cytometer gives signals particle by particle.

In data set [2] the test system is DU 145. The description is as above. Format: cell-based. How it is done:
as §1, §2, §3, §4

Data set [3] is described as follows: Critical micellar concentration / aggregation by Nile red assay. Format: physicochemical. How it is done:
Critical Micellar Concentration (CMC): Nile red is known to have a higher fluorescence when being surrounded by a hydrophobic environment and this experiment is derived from known procedure but applied to 96-well plates. To see if the CMC determination is working in our hands with our assay, we first performed it with dodecylphosphocholine and found a value of 0.3125 mg/mL, corresponding to 0.9 mM which is in accordance with values between 0.9 and 1.1 mM from literature (data not shown). Briefly, Nile red (Sigma aldrich, Buchs, CH) was diluted in methanol at a concentration of 2 μM and 5 μL was added to each well of a TPP 96-well plate (Faust Laborbedarf AG, Schaffhausen) and dry under the fumehood air flow at room temperature for 1 h. Serial dilution of the peptide dendrimers, L2000 and dodecylphosphocholine (Avanti polar lipids, Alablaster, USA) were performed in 10 mM phosphate buffer (pH 5 or pH 7.4) starting from 1 mg/mL to 0.5 μg/mL and 50 μL was added to the plate containing the dried Nile red fluorophore (final concentration 0.2 μM). For the second experiment, solution of peptide dendrimers at 1 mg/mL in Milli-Q water were diluted to 0.1 mg/mL in 100 μL PB at pH ranging from 7.4 to 4 and added to dried Nile red. The plates were incubated for 2 h before measurement of fluorescence at λex=540 nm and λem=615 nm on a Tecan Infinite M1000 Pro plate reader. CMC values can be determined at the inflection point of the curves.

[4] abbreviates: percentage of fluorescent cells, 20K events, N/P 5.

(KL)8(KKL)4(KKL)2KK(C22) [KL1,2,3-C22]: the “FI (Fold Increase in transfection efficiency in comparison to L2000) NIH 3T3” value in data set [1] is 6. Further, the “Transfection efficiency (%) NIH 3T3” value in data set [1] (setting [4]) worked out at 16.2 ± 4%. Besides, in data set [2], the “FI (Fold Increase in transfection efficiency in comparison to L2000) DU 145” value is reported as 4. In data set [2] (setting [4]), the “Transfection efficiency (%) DU 145” value was 30.6 ± 4%.
Take `CCCCCCCCCCCCOP(=O)([O-])OCC[N+](C)(C)C` [dodecylphosphocholine, reference compound]: the CMC turned out to be 0.3125 mg/mL in data set [3] (assay validation) and 0.9 mM in data set [3] (converted from mg/mL).

The values are drawn from US20220340899A1, “STEREOSELECTIVE PH RESPONSIVE PEPTIDE DENDRIMERS FOR NUCLEIC ACID TRANSFECTION” (UNIVERSITÄT BERN, priority 2019, published 2022).
